In brackets after ≈: the same amount, converted by molar mass. Like-named read-outs stand apart in the source and are kept apart here.
Tests used:
HIV-1 (RF) in MT-2 cells = experiment: microbe, parasite or virus in culture; type: cell-based
Outline: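 Read-out: gag and pol viral RNA captured by 5′-biotinylated oligonucleotides on streptavidin-coated wells, detected with alkaline phosphatase-linked reporter oligonucleotides, calibrated against BH10 in vitro transcripts. Virus stocks (RF, MN, IIIB) come from H9 cultures; MT-2 host cells kept in RPMI 1640, 5% FCS.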

[1] = target: single-chain tethered dimer of HIV protease (Human immunodeficiency virus 1, UniProt P04585); experiment: biochemical; type: biochemical; design: fused on or other part: A second copy of the same protease unit is joined to the first by a short peptide tether, giving one polypeptide
[2] = Human immunodeficiency virus 1, MT2, 48 h, Table 2d, HIV RNA assay, read-out: IC90
[3] = read-out: HPLC K1, Table 2d, HIV protease inhibition, HPLC method
[4] = Table 2d, class symbols, read-out: HPLC K1
[5] = Human immunodeficiency virus 1, MT2, 48 h, Table 2d, class symbols, read-out: IC90
[6] = read-out: HPLC K1, Table 2d, class symbols
[7] = Table 2d, HIV protease inhibition, HPLC method, read-out: HPLC K1

C[Si](C)(C)CCOCn1cncc1-c1cccc(CN2C(=O)N(Cc3cccc(-c4cncn4COCC[Si](C)(C)C)c3)C(Cc3ccccc3)C(O)C(O)C2Cc2ccccc2)c1 (stereo not drawn) [Example 15BJ]
IC90 (HIV-1 (RF) in MT-2 cells; [2]): < 10 µg/mL
Ki [1, 3]: < 0.01 µM

O=S1(=O)N(Cc2cccc(CO)c2)C(Cc2ccccc2)C(O)C(O)C(Cc2ccccc2)N1Cc1cccc(CO)c1 (stereo not drawn) [23N]
IC90 (HIV-1 (RF) in MT-2 cells; Table 2m): +++ (+++=<10 μg/mL)
Ki ([1]; Table 2m, read-out: HPLC Ki): < 0.01 µM

NNC(=O)c1ccc(CN2C(=O)N(Cc3cccc(C(=O)NN)c3)C(Cc3ccccc3)C(O)C(O)C2Cc2ccccc2)cc1 (stereo not drawn) [10N]
IC90 (HIV-1 (RF) in MT-2 cells; Table 2d, class symbols): +++ (+++=<10 μg/mL)
Ki [1, 4]: < 0.01 µM

CC(O)CCCCN1C(=O)N(CCCCC(C)O)C(Cc2ccccc2)C(O)C(O)C1Cc1ccccc1 (stereo not drawn) [Example 15VZ]
IC90 (HIV-1 (RF) in MT-2 cells; [5]): < 10 µg/mL
Ki [1, 6]: < 0.01 µM

O=C1N(CCCCCO)C(Cc2ccccc2)C(O)C(O)C(Cc2ccccc2)N1CC1CC1 (stereo not drawn) [Example 15VU]
IC90 (HIV-1 (RF) in MT-2 cells; [5]): < 10 µg/mL
Ki [1, 6]: < 0.01 µM

NCCCCCCN1C(=O)N(CCCCCCN)C(Cc2ccccc2)C(O)C(O)C1Cc1ccccc1 (stereo not drawn) [Example 12A]
IC90 (HIV-1 (RF) in MT-2 cells; [5]): > 100 µg/mL
Ki [1, 6]: > 1 µM

O=C1N(Cc2cccc(OCc3ccccc3)c2)C(Cc2ccccc2)C(O)C(O)C(Cc2ccccc2)N1Cc1cccc([N+](=O)[O-])c1 (stereo not drawn) [11P]
IC90 (HIV-1 (RF) in MT-2 cells; [5]): < 10 µg/mL
Ki [1, 6]: < 0.01 µM

CC(C)(CO)CCCCN1C(=O)N(CCCCC(C)(C)CO)C(Cc2ccccc2)C(O)C(O)C1Cc1ccccc1 (stereo not drawn) [15CP]
IC90 (HIV-1 (RF) in MT-2 cells; Table 2d, HIV RNA assay): +++ (+++=<10 μg/mL)
Ki [1, 7]: 0.01 to 1 µM

Cl.Cl.O=C(CN1CCOCC1)NCCCCCN1C(=O)N(CCCCCNC(=O)CN2CCOCC2)C(Cc2ccccc2)C(O)C(O)C1Cc1ccccc1 (stereo not drawn) [15FE]
IC90 (HIV-1 (RF) in MT-2 cells; HIV RNA assay, HIV-1 infected MT-2 cells, Table 2d): ++/+ (The ++/+ is used in the cases where an IC90 was determined to be >50 μg/mL)
Ki ([1]; HIV protease inhibition, HPLC method, Table 2d, read-out: HPLC K1): 0.01 to 1 µM

C=CCN1C(=O)N(CC=C)[C@H](Cc2ccccc2)[C@@H](O)[C@H](O)[C@H]1Cc1ccccc1 [Example 13N]
IC90 (HIV-1 (RF) in MT-2 cells; Human immunodeficiency virus 1, MT2, 48 h): 10 to 100 µg/mL (≈ 24.6 to 246 µM)
Ki [1, 6]: > 1 µM

O=C1NC(Cc2ccccc2)C(O)C(O)C(Cc2ccccc2)N1CCCCCO (stereo not drawn) [Example 15VG]
IC90 (HIV-1 (RF) in MT-2 cells; [5]): < 10 µg/mL
Ki [1, 6]: < 0.01 µM

CNC(=S)NCCCCCN1C(=O)N(CCCCCNC(=S)NC)C(Cc2ccccc2)C(O)C(O)C1Cc1ccccc1 (stereo not drawn) [15EV]
IC90 (HIV-1 (RF) in MT-2 cells; Table 2d, HIV RNA assay): ++/+ (The ++/+ is used in the cases where an IC90 was determined to be >50 μg/mL)
Ki [1, 7]: 0.01 to 1 µM

CC(O)c1cccc(CN2C(=O)N(Cc3cccc(C(C)O)c3)C(Cc3ccccc3)C(O)C(O)C2Cc2ccccc2)c1 (stereo not drawn) [15XD]
IC90 (HIV-1 (RF) in MT-2 cells; [2]): < 10 µg/mL
Ki [1, 3]: < 0.01 µM

[N-]=[N+]=NCCCCCN1C(=O)N(CCCCCN=[N+]=[N-])C(Cc2ccccc2)C(O)C(O)C1Cc1ccccc1 (stereo not drawn) [15EM]
IC90 (HIV-1 (RF) in MT-2 cells; [2]): < 10 µg/mL
Ki [1, 3]: 0.01 to 1 µM

O=C1N(Cc2cccc(C(=NO)C(F)(F)F)c2)C(Cc2ccccc2)C(O)C(O)C(Cc2ccccc2)N1Cc1cccc(C(=NO)C(F)(F)F)c1 (stereo not drawn) [Example 15XR]
IC90 (HIV-1 (RF) in MT-2 cells; [2]): < 10 µg/mL
Ki [1, 3]: < 0.01 µM

CS(=O)(=O)CCCCCN1C(=O)N(CCCCCO)C(Cc2ccccc2)C(O)C(O)C1Cc1ccccc1 (stereo not drawn) [15VT]
IC90 (HIV-1 (RF) in MT-2 cells; Table 2d, class symbols): +++ (+++=<10 μg/mL)
Ki [1, 4]: < 0.01 µM

Cl.O=C(OCc1ccc(CN2C(=O)N(Cc3ccc(COC(=O)c4ccc(CN5CCOCC5)cc4)cc3)[C@H](Cc3ccccc3)[C@H](O)[C@@H](O)[C@H]2Cc2ccccc2)cc1)c1ccc(CN2CCOCC2)cc1 [29T]
IC90 (HIV-1 (RF) in MT-2 cells; Table 2s): +++ (+++=<10 μg/mL)
Ki ([1]; Table 2s, read-out: Ki (HPLC)): > 1 µM

O=C1N(CCCCC(Br)CBr)C(Cc2ccccc2)C(O)C(O)C(Cc2ccccc2)N1CCCCC(Br)CBr (stereo not drawn) [Example 13F]
IC90 (HIV-1 (RF) in MT-2 cells; [5]): > 100 µg/mL
Ki [1, 6]: 0.01 to 1 µM

O=C1N(Cc2cccc(C(O)C(F)(F)F)c2)C(Cc2ccccc2)C(O)C(O)C(Cc2ccccc2)N1Cc1cccc(C(O)C(F)(F)F)c1 (stereo not drawn) [Example 15XI]
IC90 (HIV-1 (RF) in MT-2 cells; [2]): < 10 µg/mL
Ki [1, 3]: < 0.01 µM

O=C1N(Cc2cccc(Br)c2)C(Cc2ccccc2)C(O)C(O)C(Cc2ccccc2)N1Cc1cccc(C#CCO)c1 (stereo not drawn) [Example 9N]
IC90 (HIV-1 (RF) in MT-2 cells; [5]): < 10 µg/mL
Ki [1, 6]: 0.01 to 1 µM

O=C1N(CCOCCO)C(Cc2ccccc2)C(O)C(O)C(Cc2ccccc2)N1CCOCCO (stereo not drawn) [Example 12U]
IC90 (HIV-1 (RF) in MT-2 cells; [5]): 10 to 100 µg/mL (≈ 19.9 to 199 µM)
Ki [1, 6]: > 1 µM

O=C1N(Cc2cccc(-c3cc[nH]n3)c2)C(Cc2ccc(F)cc2)C(O)C(O)C(Cc2ccc(F)cc2)N1CC1CC1 (stereo not drawn) [20AE]
IC90 (HIV-1 (RF) in MT-2 cells; Table 2i): +++ (+++=<10 μg/mL)
Ki ([1]; Table 2i, read-out: HPLC Ki): < 0.01 µM

N#Cc1cc(CN2C(=O)N(Cc3ccc(F)c(C#N)c3)C(Cc3ccccc3)C(O)C(O)C2Cc2ccccc2)ccc1F (stereo not drawn) [15EC]
IC90 (HIV-1 (RF) in MT-2 cells; [2]): < 10 µg/mL
Ki [1, 3]: 0.01 to 1 µM

O=C1NC(Cc2ccccc2)C(O)C(O)C(Cc2ccccc2)N1CCOCCO (stereo not drawn) [Example 12T]
IC90 (HIV-1 (RF) in MT-2 cells; [5]): > 100 µg/mL
Ki [1, 6]: 0.01 to 1 µM
